Test results published in publication PMC11267923, “Metagenome-derived SusD-homologs affiliated with Bacteroidota bind to synthetic polymers” (Applied and Environmental Microbiology, 2024).

What was measured:
SusD1 (SusD1Δ1–22) = biological target: T1, SusD1 (SusD1Δ1–22) (Prevotella sp. Sc00044, UniProt W5QTG3); test: SPR, Biacore T200, His-captured protein, single-cycle kinetics, […] fit; assay type: binding
T1 construct: gene susD; Sec/SPII signal peptide 1-22 removed; C-terminal His6 from pET21a(+); expressed in E. coli BL21(DE3)

[1] = biological target: T2, SusD38489 (SusD38489Δ1–25); test: as above; parameters: species or system uncultured Bacteroidota bacterium; details: 25 °C; 0.1 M potassium phosphate pH 7 reference buffer; one binding site
T2 construct: gene susD; Sec/SPII signal peptide 1-25 removed; C-terminal His6 from pET21a(+); expressed in E. coli BL21(DE3)

T1 sequence (W5QTG3 23-580 limits assumed, stated change not applied): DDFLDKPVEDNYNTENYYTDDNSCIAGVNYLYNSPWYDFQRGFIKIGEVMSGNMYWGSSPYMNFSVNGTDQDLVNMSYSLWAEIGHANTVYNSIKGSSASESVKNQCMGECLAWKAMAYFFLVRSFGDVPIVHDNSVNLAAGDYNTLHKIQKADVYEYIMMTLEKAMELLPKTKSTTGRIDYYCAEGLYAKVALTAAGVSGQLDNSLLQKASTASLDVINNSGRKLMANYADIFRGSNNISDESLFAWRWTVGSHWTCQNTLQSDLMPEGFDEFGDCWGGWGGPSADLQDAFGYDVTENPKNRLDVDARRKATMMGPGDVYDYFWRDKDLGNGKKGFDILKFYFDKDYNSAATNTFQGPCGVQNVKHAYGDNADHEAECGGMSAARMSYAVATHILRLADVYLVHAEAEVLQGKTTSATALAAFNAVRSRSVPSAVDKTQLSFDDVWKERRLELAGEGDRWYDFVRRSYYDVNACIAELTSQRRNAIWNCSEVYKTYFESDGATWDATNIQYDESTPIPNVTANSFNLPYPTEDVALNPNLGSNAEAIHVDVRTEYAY

## O=C(OCCO)c1ccc(C(=O)OCCO)cc1 [BHET, Bis(2-Hydroxyethyl) terephthalate]
SusD1 (SusD1Δ1–22)
  Kd: 0.3 nM
[1]
  Kd: 10 nM
